Experimental data: US20220117938A1, “COMBINATON THERAPY WITH A DON PRODRUG AND AN IMMUNE CHECKPOINT INHIBITOR” (DRACEN PHARMACEUTICALS, INC., priority 2019, published 2022)

System: Ninety four (94) cell lines and PBMC
Assay: Cell viability assay, SRB staining, 94 cell lines and PBMC (Example 7, Experiment 2)
Type: cell-based
Experimental: Ninety four (94) cell lines were seeded at a density varying from 500 to 7000 cells/well depending on their growth characteristics. PBMC were seeded at the density 50,000-100,000 cells/well. Cells were incubated for 48 h prior to compound treatment. Compound 1 and DON were evaluated at a concertation range of 1 nM up to 100 μM. Compound 1 dilutions in DMSO and DON dilutions in PBS were performed in 96-well 0.5 mL plates (Greiner Bio-One, Germany). Compounds were then diluted 1:100 in RPMI medium. […] of cells were treated by mixing with 10 μL of the compound-containing media (resulting in a final DMSO concentration of 0.1%). The cells were allowed to grow at 37° C. for 120 h. Cells were fixed to the surface by addition of 10% TCA (for adherent growing cells) or 50% TCA (for semi-adherent growing cells or cells growing in suspension). After an hour of incubation at 4° C., plates were washed twice with 400 μL of deionized water and dried. Cells were then stained with 100 μL of 0.04% wt/v SRB. The plates were incubated at room temperature for at least 30 min and washed six times with 1% acetic acid to remove unbound stain. The plates were left to dry at room temperature and bound SRB was solubilized with 100 μL of 10 mM Tris base. Optical density was measured at 492, 520 and 560 nm using a Deelux-LED96 plate reader (Deelux Labortechnik GmbH, Germany).
Cell lines were purchased directly from the ATCC, NCI, CLS, and DSMZ cell line collections. A master bank and working aliquots were prepared. Cells used for the study had undergone less than 20 passages. To rule out potential contamination or wrong assignment, all cell lines were tested by STR analysis. Absence of mycoplasma contamination was confirmed for all cell lines used in the studies.
The cell lines were grown in the media recommended by the suppliers in the presence of 100 U/mL penicillin and 100 μg/mL streptomycin supplied with 10% FCS (PAA, Germany). RPMI 1640, DMEM, and MEM Earle's medium were from PAA (Coelbe, Germany), supplements 2 mM L-glutamine, 1 mM Na-pyruvate and 1% NEAA were from PAA (Coelbe, Germany), 2.5% horse serum, hydrocortisone, transferin, beta-estradiol, selenite and 1 U/mL insulin from Sigma-Aldrich (Munich, Germany). RPMI medium was used for culturing the following cell lines: 5637, 22RV1, 7860, A2780, A431, A549, ACHN, ASPC1, BT20, BXPC3, CAKI1, CLS439, COLO205, COLO678, DLD1, DU145, EFO21, EJ28, HCT15, HS578T, IGROV1, JAR, LOVO, MCF7, MDA MB231, MDA MB435, MDA MB436, MDA MB468, MHHES1, MT3, NCI H292, NCI H358M, NCI H460, NCIH82, OVCAR3, OVCAR4, PANC 1005 (addition of insulin), PBMC, PC3, RDES, SF268, SF295, SKBR3, SK MEL28, SKMEL5, SKOV3, SW620, U2OS, UMUC3, and U031.
DMEM medium was used to culture A204, A375, A673, C33A, CASKI, HCT116, HEPG2, HS729, HT29, J82, MG63, MIAPACA2 (addition of horse serum), PANC1, PLCPRF5, RD, SAOS2, SKLMS1, SKNAS, SNB75, T24, and TE671.
MEM Earle's medium was used for CACO2, CALU6, HEK293, HELA, HT1080, IMR90, JEG3, JIMT1, SKHEP1, SKNSH, and U87MG. Cell seeding conditions were optimized for each cell line. The cell seeding density varied from 500 to 7000 cells/well depending on their growth characteristics. Peripheral blood mononuclear cells (PBMC) were freshly isolated from whole blood of an anonymous donor through density gradient centrifugation using Ficoll solution (d=1.077). In short, blood was diluted 1:1 with PBS and carefully placed on the Ficoll. After centrifugation 1000×g for 15 min (braking rate 0), the ring containing mainly leucocytes was collected in PBS followed by three times washing with PBS to reduce the platelets. PBMC were seeded at the density 50,000-100,000 cells/well. Cells were grown in 5% CO2 atmosphere in a NB-203XXL incubator (N-BIOTEK Inc., Korea).
Ninety-four cell lines were tested in parallel. Cell growth and treatment were performed in 96 well microtitre plates CELLSTAR® (Greiner Bio-One, Germany). […]

[1] = Homo sapiens, MDA-MB-468, MDAMB468, breast
[2] = Homo sapiens, MG-63, MG63, bone
[3] = Homo sapiens, MHH-ES-1, MHHES1, bone
[4] = Homo sapiens, MIA PaCa-2, MIAPACA2, pancreas
[5] = Homo sapiens, MINO, hematological
[6] = Homo sapiens, MV4-11, MV4-11, hematological
[7] = Homo sapiens, NCI-H292, NCIH292, lung
[8] = Homo sapiens, NCI-H460, NCIH460, lung
[9] = Homo sapiens, OVCAR-3, OVCAR3, ovary
[10] = Homo sapiens, OVCAR-4, OVCAR4, ovary
[11] = Homo sapiens, PANC-1, PANC1, pancreas
[12] = Homo sapiens, PLC-PRF-5, PLCPRF5, liver
[13] = Homo sapiens, Panc1005, PANC1005, pancreas
[14] = Homo sapiens, SAOS-2, SAOS2, bone
[15] = Homo sapiens, SF-268, SF268, brain
[16] = Homo sapiens, SF-295, SF295, brain
[17] = Homo sapiens, SK-BR-3, SKBR3, breast
[18] = Homo sapiens, SK-HEP1, SKHEP1, liver
[19] = Homo sapiens, SK-LMS-1, SKLMS1, uterus
[20] = Homo sapiens, SK-MEL-5, SKMEL5, skin
[21] = Homo sapiens, SK-MEL-28, SKMEL28, skin
[22] = Homo sapiens, SK-N-SH, SKNSH, brain
[23] = Homo sapiens, SK-OV-3, SKOV3, ovary
[24] = Homo sapiens, SU-DHL-6, SU-DHL-6, hematological
[25] = Homo sapiens, SW-620, SW620, colon
[26] = Homo sapiens, TE-671, TE671, muscle
[27] = Homo sapiens, THP-1, THP-1, hematological
[28] = Homo sapiens, U-87 MG, U87MG, brain
[29] = Homo sapiens, UMUC3, UMUC3, bladder
[30] = Homo sapiens, UO-31, UO31, kidney
[31] = Homo sapiens, WSU-NHL, hematological

Q: Which IC50 (Homo sapiens, MDA-MB-436, MDAMB436, breast) does the source give for `[N-]=[N+]=CC(=O)CC[C@H](N)C(=O)O` [DON, 6-Diazo-5-oxo-L-norleucine, reference compound] here?
A: 19.8 µM

Q: And the GI50 [1]?
A: 0.427 µM

Q: What about the IC50 [1] of the same compound?
A: 0.599 µM

Q: What about the GI50 [2] of the same compound?
A: 4.61 µM

Q: What about the IC50 [2] of the same compound?
A: 5.3 µM

Q: What about the GI50 [3] of the same compound?
A: 1.85 µM

Q: What about the IC50 [3] of the same compound?
A: 2 µM

Q: And the GI50 [4]?
A: 3.32 µM

Q: And the IC50 [4]?
A: 3.58 µM

Q: What about the GI50 [5] of the same compound?
A: 0.497 µM

Q: What about the IC50 [5] of the same compound?
A: 0.633 µM

Q: What about the GI50 [6] of the same compound?
A: 1.22 µM

Q: What about the IC50 [6] of the same compound?
A: 1.4 µM

Q: And the GI50 [7]?
A: 5.72 µM

Q: What about the IC50 [7] of the same compound?
A: 53.1 µM

Q: And the GI50 [8]?
A: 4.11 µM

Q: And the IC50 [8]?
A: 4.31 µM

Q: And the GI50 [9]?
A: 0.889 µM

Q: What about the IC50 [9] of the same compound?
A: 2.3 µM

Q: What about the GI50 [10] of the same compound?
A: 0.651 µM

Q: And the IC50 [10]?
A: 0.752 µM

Q: What about the GI50 [11] of the same compound?
A: 12.3 µM

Q: And the IC50 [11]?
A: 13.2 µM

Q: And the GI50 [12]?
A: 6.53 µM

Q: And the IC50 [12]?
A: 8.04 µM

Q: And the GI50 [13]?
A: 4.17 µM

Q: And the IC50 [13]?
A: 8.6 µM

Q: And the GI50 (Homo sapiens, Ramos, hematological)?
A: 0.672 µM

Q: What about the GI50 [14] of the same compound?
A: 6.36 µM

Q: And the IC50 [14]?
A: 33.2 µM

Q: What about the GI50 [15] of the same compound?
A: 6.32 µM

Q: And the IC50 [15]?
A: 7.43 µM

Q: What about the GI50 [16] of the same compound?
A: 4.71 µM

Q: And the IC50 [16]?
A: 5.23 µM

Q: And the GI50 [17]?
A: 2.14 µM

Q: And the IC50 [17]?
A: 3.21 µM

Q: And the GI50 [18]?
A: 1.79 µM

Q: What about the IC50 [18] of the same compound?
A: 2.62 µM

Q: And the GI50 [19]?
A: 1.66 µM

Q: And the IC50 [19]?
A: 2.3 µM

Q: And the GI50 [20]?
A: 2.19 µM

Q: And the IC50 [20]?
A: 3.02 µM

Q: And the GI50 [21]?
A: 1.69 µM

Q: And the IC50 [21]?
A: 2.19 µM

Q: What about the GI50 (Homo sapiens, SK-N-AS, SKNAS, brain) of the same compound?
A: 12.6 µM

Q: And the GI50 [22]?
A: 5.04 µM

Q: What about the IC50 [22] of the same compound?
A: 7.11 µM

Q: What about the GI50 [23] of the same compound?
A: 0.769 µM

Q: What about the IC50 [23] of the same compound?
A: 1.21 µM

Q: What about the GI50 (Homo sapiens, SNB-75, SNB75, brain) of the same compound?
A: 15.5 µM

Q: What about the GI50 (Homo sapiens, SU-DHL10, SU-DHL-10, hematological) of the same compound?
A: 8.42 µM

Q: What about the GI50 [24] of the same compound?
A: 0.623 µM

Q: What about the IC50 [24] of the same compound?
A: 0.761 µM

Q: What about the GI50 [25] of the same compound?
A: 5.38 µM

Q: And the IC50 [25]?
A: 6.25 µM

Q: And the GI50 [26]?
A: 4.63 µM

Q: And the IC50 [26]?
A: 5.1 µM

Q: And the GI50 [27]?
A: 1.02 µM

Q: And the IC50 [27]?
A: 1.09 µM

Q: What about the GI50 (Homo sapiens, U2OS, bone) of the same compound?
A: 5.91 µM

Q: And the IC50 (Homo sapiens, U2OS, bone)?
A: 8.4 µM

Q: What about the GI50 [28] of the same compound?
A: 10.5 µM

Q: What about the IC50 [28] of the same compound?
A: 11.3 µM

Q: What about the GI50 [29] of the same compound?
A: 2.23 µM

Q: And the IC50 [29]?
A: 2.76 µM

Q: What about the GI50 [30] of the same compound?
A: 0.981 µM

Q: And the IC50 [30]?
A: 18.6 µM

Q: And the GI50 [31]?
A: 0.796 µM

Q: What about the IC50 [31] of the same compound?
A: 0.639 µM

Q: And the IC50 (J82, bladder)?
A: 28.9 µM

Q: And the IC50 (JAR, placenta)?
A: 3.04 µM

Q: What about the IC50 (MT3, breast) of the same compound?
A: 0.791 µM

Q: What about the GI50 (NCI-H358M, NCIH358M, lung) of the same compound?
A: 1.61 µM

Q: What about the IC50 (NCI-H358M, NCIH358M, lung) of the same compound?
A: 4.98 µM

Q: And the GI50 (PBMC, 5637, bladder)?
A: 0.796 µM

Q: What about the GI50 (PBMC, CLS439, bladder) of the same compound?
A: 6.87 µM

Q: And the GI50 (PBMC, HS729, muscle)?
A: 7.42 µM

Q: What about the GI50 (PBMC, J82, bladder) of the same compound?
A: 23.2 µM

Q: And the GI50 (PBMC, JAR, placenta)?
A: 2.81 µM

Q: And the GI50 (PBMC, MT3, breast)?
A: 0.638 µM

Q: What about the GI50 (PBMC, PC3, prostate) of the same compound?
A: 8.37 µM

Q: What about the GI50 (PBMC, RD, muscle) of the same compound?
A: 6.79 µM

Q: And the GI50 (PBMC, T24, bladder)?
A: 3.86 µM

Q: What about the IC50 (PC3, prostate) of the same compound?
A: 11.7 µM

Q: What about the IC50 (RD, muscle) of the same compound?
A: 9.13 µM

Q: What about the GI50 (RD-ES, RDES, bone) of the same compound?
A: 1.96 µM

Q: What about the IC50 (RD-ES, RDES, bone) of the same compound?
A: 3.18 µM

Q: What about the IC50 (T24, bladder) of the same compound?
A: 4 µM
